Assay results as given in article PMC10099813, “Stafiba: A STAT5‐Selective Small‐Molecule Inhibitor” (Chembiochem, 2022).

Columns and labels:
STAT3 = STAT3 (Homo sapiens, UniProt P40763); test: Competitive fluorescence polarization (FP) binding assay, STAT3; conditions: 2 % DMSO for 5, 10 % DMSO for 10
Experimental: (§1) Fluorescence polarization assays: Competitive binding assays based on fluorescence polarization were carried out essentially as previously described.[[4a]] Unless stated otherwise, final concentrations of the buffer components were: 10 mM Tris (pH 8.0), 50 mM NaCl, 1 mM EDTA, 1 mM DTT, 0.1 % (v/v) Nonidet P‐40 substitute, and 2 % DMSO. Proteins were used at concentrations which reflect the Kd values of the interactions between the fluoropeptide and the protein preparations. Protein concentrations used for activity analysis of compound 5 were 91 nM for STAT1, 107 nM for STAT3, 28 nM for STAT4, 122 nM for STAT5a, 56 nM for STAT5b and 101 nM for STAT6. Protein concentrations used for activity analysis of AC‐4‐130 were 103 nM for STAT5a and 62 nM for STAT5b. […] Final concentration of all fluorescent‐labelled peptides was 10 nM. The following peptides were used in assays: 5‐carboxyfluorescein‐GpYDKPHVL for STAT1; 5‐carboxyfluorescein‐GpYLPQTV‐NH2 for STAT3; 5‐carboxyfluorescein‐GpYLPQNID for STAT4; 5‐carboxyfluorescein‐GpYLVLDKW for STAT5a/5b, and 5‐carboxyfluorescein‐GpYVPWQDLI for STAT6. Protein and test compounds were incubated for 1 h prior to addition of the fluorescein‐labeled peptide. Fluorescence polarization was measured after another 60 min using an Infinite F500 plate reader (Tecan). IC50 values were converted to Ki‐values using the published equation.[13]

STAT5b = target: T1, STAT5b (Homo sapiens, UniProt P51692); test: Competitive fluorescence polarization (FP) binding assay, STAT5b SH2 domain; conditions: for Ki / IC50: FP assay, 2 % DMSO (10 % DMSO for 10); for Ki: Ki calculated from IC50 (n=3) via published equation; for IC50: n=3; for selectivity for STAT5b over STAT1, STAT3, and STAT6: FP assays
T1 sequence (P51692 1-787): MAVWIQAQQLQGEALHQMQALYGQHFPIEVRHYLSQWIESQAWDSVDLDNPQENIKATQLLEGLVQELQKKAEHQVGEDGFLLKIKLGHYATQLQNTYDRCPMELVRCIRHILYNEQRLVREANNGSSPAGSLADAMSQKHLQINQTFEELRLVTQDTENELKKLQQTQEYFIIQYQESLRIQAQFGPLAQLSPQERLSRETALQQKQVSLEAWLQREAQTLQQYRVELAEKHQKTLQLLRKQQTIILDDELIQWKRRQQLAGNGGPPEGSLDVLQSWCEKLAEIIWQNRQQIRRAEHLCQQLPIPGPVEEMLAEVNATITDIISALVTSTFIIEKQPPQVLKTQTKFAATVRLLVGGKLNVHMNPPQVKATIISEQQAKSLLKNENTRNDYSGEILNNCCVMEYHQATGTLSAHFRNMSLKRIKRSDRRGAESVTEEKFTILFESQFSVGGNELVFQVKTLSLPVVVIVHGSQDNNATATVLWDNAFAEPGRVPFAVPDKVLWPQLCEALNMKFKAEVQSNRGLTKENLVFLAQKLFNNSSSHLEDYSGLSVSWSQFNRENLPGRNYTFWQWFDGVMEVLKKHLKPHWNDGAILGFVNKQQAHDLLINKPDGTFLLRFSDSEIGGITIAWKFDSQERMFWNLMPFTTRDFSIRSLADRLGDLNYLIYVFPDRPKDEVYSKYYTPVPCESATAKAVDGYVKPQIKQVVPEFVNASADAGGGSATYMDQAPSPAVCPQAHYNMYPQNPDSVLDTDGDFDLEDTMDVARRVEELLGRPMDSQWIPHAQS
Experimental: as §1

STAT6 = target: T2, STAT6 (Homo sapiens, UniProt P42226); test: Competitive fluorescence polarization (FP) binding assay, STAT6
T2 sequence (P42226 1-847): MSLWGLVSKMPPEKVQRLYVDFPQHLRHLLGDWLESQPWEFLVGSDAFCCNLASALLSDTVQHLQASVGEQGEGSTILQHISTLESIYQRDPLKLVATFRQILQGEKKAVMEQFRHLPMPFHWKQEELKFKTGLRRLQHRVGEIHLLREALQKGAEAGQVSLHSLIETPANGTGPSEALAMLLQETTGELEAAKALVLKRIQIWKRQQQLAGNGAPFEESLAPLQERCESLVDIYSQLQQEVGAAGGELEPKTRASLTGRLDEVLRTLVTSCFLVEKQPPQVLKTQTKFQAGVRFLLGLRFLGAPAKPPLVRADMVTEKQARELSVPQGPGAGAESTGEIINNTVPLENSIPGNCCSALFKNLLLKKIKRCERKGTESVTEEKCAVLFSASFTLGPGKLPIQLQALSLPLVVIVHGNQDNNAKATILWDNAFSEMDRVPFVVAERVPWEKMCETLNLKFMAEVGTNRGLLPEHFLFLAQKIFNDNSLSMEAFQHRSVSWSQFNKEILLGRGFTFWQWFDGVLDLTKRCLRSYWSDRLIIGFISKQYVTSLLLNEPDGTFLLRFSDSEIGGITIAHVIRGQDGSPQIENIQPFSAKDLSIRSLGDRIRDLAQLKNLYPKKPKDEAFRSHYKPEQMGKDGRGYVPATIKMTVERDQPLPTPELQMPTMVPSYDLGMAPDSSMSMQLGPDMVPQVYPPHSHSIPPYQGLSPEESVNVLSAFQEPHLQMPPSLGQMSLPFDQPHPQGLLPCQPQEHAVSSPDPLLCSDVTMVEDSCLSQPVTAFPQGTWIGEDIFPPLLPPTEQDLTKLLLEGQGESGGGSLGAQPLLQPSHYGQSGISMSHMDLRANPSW
Experimental: as §1

Chain of STAT3 (P40763 whole entry, species assumed): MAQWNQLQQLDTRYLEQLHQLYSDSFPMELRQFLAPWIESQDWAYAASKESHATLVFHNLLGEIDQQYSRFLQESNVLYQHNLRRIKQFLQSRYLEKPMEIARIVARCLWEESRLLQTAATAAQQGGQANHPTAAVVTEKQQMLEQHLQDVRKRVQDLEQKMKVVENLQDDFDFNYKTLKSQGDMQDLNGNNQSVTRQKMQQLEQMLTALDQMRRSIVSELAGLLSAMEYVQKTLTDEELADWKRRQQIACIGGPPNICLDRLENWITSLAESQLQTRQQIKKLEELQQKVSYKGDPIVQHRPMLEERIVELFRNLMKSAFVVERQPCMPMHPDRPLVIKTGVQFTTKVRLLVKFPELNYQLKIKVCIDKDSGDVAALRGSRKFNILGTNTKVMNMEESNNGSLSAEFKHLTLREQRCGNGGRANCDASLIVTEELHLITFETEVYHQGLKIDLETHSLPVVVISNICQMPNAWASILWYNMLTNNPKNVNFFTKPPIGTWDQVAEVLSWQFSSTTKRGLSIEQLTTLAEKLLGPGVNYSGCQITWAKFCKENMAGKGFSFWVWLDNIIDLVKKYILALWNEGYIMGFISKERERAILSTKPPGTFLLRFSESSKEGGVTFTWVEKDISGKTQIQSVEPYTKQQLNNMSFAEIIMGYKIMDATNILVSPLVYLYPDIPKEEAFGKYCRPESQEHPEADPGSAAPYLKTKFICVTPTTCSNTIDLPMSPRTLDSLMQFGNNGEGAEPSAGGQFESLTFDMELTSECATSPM

SMILES	inhibition at 100 µM (STAT3) [%]	Ki (STAT5b) [µM]	IC50 (STAT5b) [µM]	selectivity for STAT5b over STAT1, STAT3, and STAT6 (STAT5b)	inhibition at 100 µM (STAT6; 100 µM, 2 % DMSO) [%]	activity compared with AC-4-130 in FP assay against the SH2 domain of STAT5b (STAT5b; Figure 5C)	IC50 (STAT6; 10 % DMSO) [µM]	Ki (STAT6; Ki calculated from IC50, 10 % DMSO) [µM]
O=C(CNc1ccc(C(=O)Nc2ccc(Oc3ccccc3)cc2)cc1)NCc1cc(OP(=O)(O)O)cc(OP(=O)(O)O)c1 [compound 5]	33 ± 11	1.5 ± 0.1	3.1 ± 0.3	more than tenfold	48 ± 1			
O=C(CNc1ccc(C(=O)Nc2ccc(Oc3ccccc3)cc2)cc1)NCc1cc(C(F)(F)P(=O)(O)O)c(F)c(C(F)(F)P(=O)(O)O)c1 [compound 10]	49 ± 3	1.8 ± 0.1	3.7 ± 0.2	10–20 fold		substantially more active than AC‐4‐130	61.3 ± 2.7	30.1 ± 1.3
